Experimental data published in ChEMBL document CHEMBL1201862, “PubChem BioAssay data set” (2004).
The source made the active and inactive calls.

Key:
[1] = biological target: Luciferin 4-monooxygenase (Photinus pyralis, UniProt P08659); test: Counter Screen for Luciferase-based Assay Positives. [Related pubchem assays: 620, 618, 411 ]
HT-1080 = test: HT1080 cell viability loss – fluorescence readout (AID 620); type: functional, cell-based; conditions: Homo sapiens
Cysteine protease ATG4B = biological target: T1, Cysteine protease ATG4B (Homo sapiens, UniProt Q9Y4P1); type: functional;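 further: Fluorescence-based dose-response confirmation assay measuring inhibition of ATG4B activity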
T1 sequence (Q9Y4P1 whole entry): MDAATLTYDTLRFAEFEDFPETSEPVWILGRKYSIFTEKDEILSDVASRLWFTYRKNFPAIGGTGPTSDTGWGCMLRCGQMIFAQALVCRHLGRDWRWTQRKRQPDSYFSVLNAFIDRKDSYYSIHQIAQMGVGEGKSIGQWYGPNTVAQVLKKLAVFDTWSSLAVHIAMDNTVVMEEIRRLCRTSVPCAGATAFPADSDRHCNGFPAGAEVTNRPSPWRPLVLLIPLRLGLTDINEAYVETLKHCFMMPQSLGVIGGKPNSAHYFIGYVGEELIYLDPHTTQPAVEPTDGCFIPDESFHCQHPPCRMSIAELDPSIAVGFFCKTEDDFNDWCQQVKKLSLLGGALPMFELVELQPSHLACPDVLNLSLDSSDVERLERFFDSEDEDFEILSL

[2] = biological target: T2, Tyrosine-protein phosphatase non-receptor type 22 (Homo sapiens, UniProt Q9Y2R2); type: functional
T2 sequence (Q9Y2R2 whole entry): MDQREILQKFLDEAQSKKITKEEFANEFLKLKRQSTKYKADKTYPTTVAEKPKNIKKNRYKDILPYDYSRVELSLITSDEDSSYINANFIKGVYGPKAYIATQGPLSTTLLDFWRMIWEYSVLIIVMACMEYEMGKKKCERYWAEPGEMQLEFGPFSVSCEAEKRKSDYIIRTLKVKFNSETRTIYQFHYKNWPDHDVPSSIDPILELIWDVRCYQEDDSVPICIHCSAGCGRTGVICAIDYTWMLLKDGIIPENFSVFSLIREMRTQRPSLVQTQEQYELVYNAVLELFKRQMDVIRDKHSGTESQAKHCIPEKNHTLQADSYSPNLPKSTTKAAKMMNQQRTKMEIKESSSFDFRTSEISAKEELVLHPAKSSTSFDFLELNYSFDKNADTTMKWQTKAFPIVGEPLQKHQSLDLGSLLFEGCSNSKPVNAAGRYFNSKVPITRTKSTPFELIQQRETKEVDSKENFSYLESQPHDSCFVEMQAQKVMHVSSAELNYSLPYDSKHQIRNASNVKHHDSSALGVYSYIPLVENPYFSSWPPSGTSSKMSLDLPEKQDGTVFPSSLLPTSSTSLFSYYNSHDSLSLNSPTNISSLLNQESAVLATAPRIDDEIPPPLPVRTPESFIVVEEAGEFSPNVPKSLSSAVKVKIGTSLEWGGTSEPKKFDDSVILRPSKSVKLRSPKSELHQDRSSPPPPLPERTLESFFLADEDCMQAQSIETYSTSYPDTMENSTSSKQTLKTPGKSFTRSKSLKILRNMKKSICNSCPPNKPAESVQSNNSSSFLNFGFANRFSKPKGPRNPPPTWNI

[3] = Intein inhibitors as potential Tuberculosis drugs, a cytotoxicity screen. [Related pubchem assays (depositor defined):AID2221, AID2223, AID434968, AID435010, AID449749, AID449750, AID489010]; type: functional
Paired box protein Pax-8 = Paired box protein Pax-8 (Homo sapiens, UniProt Q06710); test: PAX8 transcriptional activity inhibition in RMG-I – RMG-I cells, luciferase, cherry-pick, dose response (AID 687027); type: functional, cell-based;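 further: luciferase reporter driven by Pax8 target thyroperoxidase promoter measured by SteadyGlo luminescence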
[4] = non-specific 3'UTR reporter inhibition in Clone20-Shn3RL – cell-based, Renilla luciferase, cherry-picked, counter-screen for Shn3 inhibitor project, dose response (AID 624133); type: functional
[5] = biological target: T3, Replicative DNA helicase DnaB (Mycobacterium tuberculosis, UniProt P9WMR3); test: DnaB intein splicing inhibitors, dose response, biochemical, cell-free fluorescence (AID 449749); type: functional
T3 sequence (P9WMR3 whole entry): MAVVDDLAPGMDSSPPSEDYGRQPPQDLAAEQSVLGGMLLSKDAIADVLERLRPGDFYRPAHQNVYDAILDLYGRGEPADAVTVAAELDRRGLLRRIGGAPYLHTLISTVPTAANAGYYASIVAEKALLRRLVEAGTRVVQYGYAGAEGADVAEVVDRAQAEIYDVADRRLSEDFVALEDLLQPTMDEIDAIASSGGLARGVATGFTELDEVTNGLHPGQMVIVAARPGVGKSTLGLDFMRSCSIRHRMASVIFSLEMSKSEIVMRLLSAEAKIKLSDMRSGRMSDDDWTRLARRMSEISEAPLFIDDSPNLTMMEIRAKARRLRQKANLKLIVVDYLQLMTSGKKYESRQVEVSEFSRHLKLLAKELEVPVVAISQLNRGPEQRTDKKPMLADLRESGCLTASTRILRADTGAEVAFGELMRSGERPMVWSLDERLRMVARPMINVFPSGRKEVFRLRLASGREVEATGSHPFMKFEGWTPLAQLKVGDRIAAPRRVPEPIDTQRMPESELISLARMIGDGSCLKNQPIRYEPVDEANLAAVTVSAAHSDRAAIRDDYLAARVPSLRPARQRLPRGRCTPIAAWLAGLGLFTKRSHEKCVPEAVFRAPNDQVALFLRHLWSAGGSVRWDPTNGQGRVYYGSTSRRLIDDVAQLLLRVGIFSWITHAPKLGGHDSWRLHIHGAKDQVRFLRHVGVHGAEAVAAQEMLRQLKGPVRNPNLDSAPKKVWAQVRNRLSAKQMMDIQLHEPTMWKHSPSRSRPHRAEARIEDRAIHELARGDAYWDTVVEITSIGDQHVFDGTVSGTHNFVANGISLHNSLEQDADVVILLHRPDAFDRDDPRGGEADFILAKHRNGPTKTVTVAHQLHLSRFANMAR

[6] = CMV-driven luciferase expression suppression in HEK293 – cell-based, luminescence, dry powder, counter-screen for Pax8 inhibitor project, dose response (AID 743020); type: functional
[7] = biological target: T2, Tyrosine-protein phosphatase non-receptor type 22; type: functional; remark: listed apart in the source
[8] = biological target: Cyclin-dependent kinase 7 (Homo sapiens, UniProt P50613); type: functional;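 further: value comes from a kinome-wide kinase profiling panel in which CDK7 is one member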
Sequence of Cyclin-dependent kinase 7 (P50613 whole entry): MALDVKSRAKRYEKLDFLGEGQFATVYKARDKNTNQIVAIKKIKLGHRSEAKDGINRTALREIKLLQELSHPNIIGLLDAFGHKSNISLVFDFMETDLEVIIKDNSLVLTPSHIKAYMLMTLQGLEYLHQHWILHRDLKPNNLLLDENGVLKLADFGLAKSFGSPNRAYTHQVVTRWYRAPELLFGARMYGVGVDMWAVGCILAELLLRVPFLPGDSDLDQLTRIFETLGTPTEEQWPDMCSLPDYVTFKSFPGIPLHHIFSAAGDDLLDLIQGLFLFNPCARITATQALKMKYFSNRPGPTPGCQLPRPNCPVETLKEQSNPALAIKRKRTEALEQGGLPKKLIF

[9] = biological target: Protein kinase C gamma type (Homo sapiens, UniProt P05129); type: functional
[10] = biological target: Serine/threonine-protein kinase N2 (Homo sapiens, UniProt Q16513); type: functional
[11] = biological target: Tyrosine-protein kinase Lyn (Homo sapiens, UniProt P07948); type: functional;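 further: lyn as one member of a kinase panel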
Sequence of Tyrosine-protein kinase Lyn (P07948 whole entry): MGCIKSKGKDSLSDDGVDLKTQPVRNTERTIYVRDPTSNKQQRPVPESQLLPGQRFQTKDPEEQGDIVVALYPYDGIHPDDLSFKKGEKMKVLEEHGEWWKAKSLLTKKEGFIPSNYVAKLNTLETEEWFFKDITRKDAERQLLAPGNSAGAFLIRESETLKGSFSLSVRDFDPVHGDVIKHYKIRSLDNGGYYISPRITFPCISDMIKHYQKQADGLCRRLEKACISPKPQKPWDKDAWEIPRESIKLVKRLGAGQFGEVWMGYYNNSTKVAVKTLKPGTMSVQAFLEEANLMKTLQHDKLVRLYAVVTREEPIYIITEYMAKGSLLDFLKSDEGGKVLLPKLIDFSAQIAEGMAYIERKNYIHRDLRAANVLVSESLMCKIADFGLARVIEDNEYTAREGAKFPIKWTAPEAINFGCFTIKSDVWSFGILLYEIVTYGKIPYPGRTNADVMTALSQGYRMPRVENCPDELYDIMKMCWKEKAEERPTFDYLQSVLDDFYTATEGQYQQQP

[12] = biological target: Mitogen-activated protein kinase kinase kinase kinase 5 (Homo sapiens, UniProt Q9Y4K4); type: functional;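 further: measured as one member of a kinome-spanning kinase panel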
Sequence of Mitogen-activated protein kinase kinase kinase kinase 5 (Q9Y4K4 whole entry): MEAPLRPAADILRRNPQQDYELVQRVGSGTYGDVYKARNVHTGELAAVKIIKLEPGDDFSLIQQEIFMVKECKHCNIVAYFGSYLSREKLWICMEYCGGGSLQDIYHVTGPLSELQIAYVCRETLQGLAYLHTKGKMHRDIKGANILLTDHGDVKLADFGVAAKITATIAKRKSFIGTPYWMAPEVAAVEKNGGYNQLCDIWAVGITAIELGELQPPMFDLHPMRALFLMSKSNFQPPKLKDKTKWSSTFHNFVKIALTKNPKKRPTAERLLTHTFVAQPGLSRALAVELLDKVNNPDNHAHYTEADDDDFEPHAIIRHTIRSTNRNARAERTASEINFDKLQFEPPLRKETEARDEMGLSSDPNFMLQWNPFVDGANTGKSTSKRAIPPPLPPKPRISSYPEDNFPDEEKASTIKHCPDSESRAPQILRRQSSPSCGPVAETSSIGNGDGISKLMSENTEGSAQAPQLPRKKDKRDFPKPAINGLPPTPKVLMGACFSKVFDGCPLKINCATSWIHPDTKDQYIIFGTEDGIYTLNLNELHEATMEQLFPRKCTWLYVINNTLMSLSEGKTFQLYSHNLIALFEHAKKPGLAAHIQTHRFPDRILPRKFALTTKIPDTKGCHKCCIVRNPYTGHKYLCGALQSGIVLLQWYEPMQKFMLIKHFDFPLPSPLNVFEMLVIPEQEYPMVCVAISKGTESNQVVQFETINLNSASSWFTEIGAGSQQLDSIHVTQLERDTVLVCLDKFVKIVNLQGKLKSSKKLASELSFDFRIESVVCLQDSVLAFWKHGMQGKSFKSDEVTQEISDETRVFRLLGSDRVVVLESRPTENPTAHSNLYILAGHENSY

[13] = biological target: Casein kinase II subunit alpha (Homo sapiens, UniProt P68400); type: functional
Sequence of Casein kinase II subunit alpha (P68400 whole entry): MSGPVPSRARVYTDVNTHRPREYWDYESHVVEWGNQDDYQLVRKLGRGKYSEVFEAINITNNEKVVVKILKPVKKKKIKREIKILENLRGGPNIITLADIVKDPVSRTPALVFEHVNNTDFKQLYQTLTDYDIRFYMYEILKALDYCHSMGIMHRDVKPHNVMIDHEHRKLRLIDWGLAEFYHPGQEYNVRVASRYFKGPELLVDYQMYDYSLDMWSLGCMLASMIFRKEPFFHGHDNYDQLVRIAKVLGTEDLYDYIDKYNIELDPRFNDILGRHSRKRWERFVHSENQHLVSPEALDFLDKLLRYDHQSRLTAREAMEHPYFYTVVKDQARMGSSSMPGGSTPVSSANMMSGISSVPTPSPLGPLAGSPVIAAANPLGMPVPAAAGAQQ

Misshapen-like kinase 1 = Misshapen-like kinase 1 (Homo sapiens, UniProt Q8N4C8); type: functional;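 further: kinome panel screen with MINK as the panel member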
[14] = biological target: STE20-like serine/threonine-protein kinase (Homo sapiens, UniProt Q9H2G2); type: functional
Ephrin type-A receptor 2 = Ephrin type-A receptor 2 (Homo sapiens, UniProt P29317); type: functional;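 further: EPHA2 tested as one member of a kinome-wide kinase panel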
[15] = biological target: Serine/threonine-protein kinase 3 (Homo sapiens, UniProt Q13188); type: functional;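 further: measured as one member of a kinome-wide kinase panel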
Sequence of Serine/threonine-protein kinase 3 (Q13188 whole entry): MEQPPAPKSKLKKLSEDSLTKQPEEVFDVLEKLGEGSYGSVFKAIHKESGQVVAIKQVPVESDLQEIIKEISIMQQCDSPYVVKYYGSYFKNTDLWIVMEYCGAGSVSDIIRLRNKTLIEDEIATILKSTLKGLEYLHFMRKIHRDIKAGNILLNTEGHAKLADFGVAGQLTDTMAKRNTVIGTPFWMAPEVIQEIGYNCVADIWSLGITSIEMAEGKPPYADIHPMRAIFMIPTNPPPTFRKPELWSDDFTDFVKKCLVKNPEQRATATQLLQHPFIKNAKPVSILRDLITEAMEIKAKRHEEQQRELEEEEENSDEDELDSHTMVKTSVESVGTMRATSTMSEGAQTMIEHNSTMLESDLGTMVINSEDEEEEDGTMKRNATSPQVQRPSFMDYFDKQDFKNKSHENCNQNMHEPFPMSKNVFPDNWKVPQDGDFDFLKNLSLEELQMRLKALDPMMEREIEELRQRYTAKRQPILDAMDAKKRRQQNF

[16] = biological target: cAMP-dependent protein kinase catalytic subunit PRKX (Homo sapiens, UniProt P51817); type: functional
[17] = biological target: Tyrosine-protein kinase receptor UFO (Homo sapiens, UniProt P30530); type: functional
Sequence of Tyrosine-protein kinase receptor UFO (P30530 whole entry): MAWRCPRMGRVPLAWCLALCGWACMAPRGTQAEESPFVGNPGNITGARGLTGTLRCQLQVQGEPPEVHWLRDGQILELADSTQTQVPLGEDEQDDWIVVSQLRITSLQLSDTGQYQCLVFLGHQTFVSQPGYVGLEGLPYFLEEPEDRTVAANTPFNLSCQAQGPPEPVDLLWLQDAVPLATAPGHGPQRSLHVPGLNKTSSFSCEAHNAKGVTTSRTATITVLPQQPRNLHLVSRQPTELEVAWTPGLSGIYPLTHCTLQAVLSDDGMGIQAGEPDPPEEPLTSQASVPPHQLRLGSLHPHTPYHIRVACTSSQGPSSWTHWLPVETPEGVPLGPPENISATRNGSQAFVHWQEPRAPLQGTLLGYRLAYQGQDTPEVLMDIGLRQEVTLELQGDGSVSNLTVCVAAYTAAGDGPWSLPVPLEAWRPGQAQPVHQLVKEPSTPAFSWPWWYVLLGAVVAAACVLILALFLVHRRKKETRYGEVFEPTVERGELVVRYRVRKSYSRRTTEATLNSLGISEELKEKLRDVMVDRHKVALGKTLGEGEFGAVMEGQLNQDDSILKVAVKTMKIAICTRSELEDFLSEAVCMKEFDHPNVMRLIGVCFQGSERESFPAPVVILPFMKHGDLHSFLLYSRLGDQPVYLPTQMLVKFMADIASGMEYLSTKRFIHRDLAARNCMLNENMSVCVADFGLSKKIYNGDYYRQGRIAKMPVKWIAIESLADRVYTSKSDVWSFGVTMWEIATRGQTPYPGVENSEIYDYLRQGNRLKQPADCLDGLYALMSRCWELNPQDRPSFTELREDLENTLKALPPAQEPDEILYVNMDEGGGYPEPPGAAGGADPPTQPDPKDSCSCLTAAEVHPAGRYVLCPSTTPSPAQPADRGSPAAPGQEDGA

[18] = biological target: BDNF/NT-3 growth factors receptor (Homo sapiens, UniProt Q16620); type: functional;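 further: NTRK2 measured as one member of a broad kinome-wide kinase profiling panel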
[19] = biological target: Mitogen-activated protein kinase kinase kinase kinase 4 (Homo sapiens, UniProt O95819); type: functional
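Wherever CC50 is given: cells exposed to compound for 72 hours before luminescence readout.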

CC(C)c1ccc(-c2nnn(CCC(=O)O)n2)cc1
> 50 µM (not active): EC50 (HT-1080)
active: EC50 [1] 4.77 µM

CCn1nc(/C=C/c2ccccc2)nc2c(=O)n(C)c(=O)nc1-2
active: IC50 (Cysteine protease ATG4B) 0.653 µM | IC50 [2] 13 µM | CC50 [3] > 40 µM | AC50 (Paired box protein Pax-8) 4.21 µM | AC50 [4] 5.79 µM | AC50 [5] 0.487 µM | AC50 [6] < 0.704 µM | IC50 [7] 11.7 µM

COc1cc2c(cc1Nc1nc(Nc3cccc(F)c3C(N)=O)c3cc[nH]c3n1)N(C(=O)CN(C)C)CC2
active: Ki [8] 2.51 µM | Ki [9] 1 µM | Ki [13] 0.631 µM | Ki (Misshapen-like kinase 1) 3.98 µM | Ki [17] 0.126 µM
inactive: Ki [10] > 7.94 µM | Ki [11] > 1.58 µM | Ki [12] > 7.94 µM | Ki [14] > 10 µM | Ki (Ephrin type-A receptor 2) > 3.16 µM | Ki [15] > 3.16 µM | Ki [16] > 3.16 µM | Ki [18] > 3.98 µM | Ki [19] > 5.01 µM
